“And” between values parts separate entries of the source, which are not always exact repeats. Equal entries are not always repeated.

For this experiment, the system named is Meloidogyne incognita. The experiment in a line: Meloidogyne incognita test (sand, salad seedlings, gall formation). It is filed as in vivo. The following applies: application rate 20 ppm, after 14 days, 100% = no galls, 0% = galls equal to untreated control. The procedure:
Meloidogyne Incognita—Test
Solvent: 125.0 parts by weight of acetone
To produce a suitable preparation of active compound, 1 part by weight of active compound is mixed with the stated amount of solvent, and the concentrate is diluted with water to the desired concentration.
Vessels are filled with sand, a solution of the active ingredient, a suspension containing eggs and larvae of the southern root-knot nematode (Meloidogyne incognita) and salad seeds. The salad seeds germinate and the seedlings grow. Galls develop in the roots.
After 14 days the nematicidal activity is determined on the basis of the percentage of gall formation. 100% means no galls were found and 0% means the number of galls found on the roots of the treated plants was equal to that in untreated control plants.
As for `CC(C)Sc1cccc(Cl)c1S(=O)(=O)NC(=O)c1cc2cc(C(F)(F)F)cc(Cl)n2n1` [Example I-64], the “nematicidal activity on the basis of the percentage of gall formation” value was found to be 100%.

Turning to `O=C(NS(=O)(=O)C1CC1)c1cc2cc(C(F)(F)F)ccn2n1` [Example I-29], the “nematicidal activity on the basis of the percentage of gall formation” value worked out at 90%.

`O=C(NS(=O)(=O)c1ccccc1Cl)c1cc2cc(C(F)(F)F)ccn2n1` [Example I-1, N-[(2-chlorophenyl)sulfonyl]-5-(trifluoromethyl)pyrazolo[1,5-a]pyridine-2-carboxamide]: the “nematicidal activity on the basis of the percentage of gall formation” value came out at 100%.

With `COc1ccc(Cl)c(S(=O)(=O)NC(=O)c2cc3cc(Cl)cc(Cl)n3n2)c1` [Example I-49], the “nematicidal activity on the basis of the percentage of gall formation” value is on record as 90%.

With `CCSc1cccc(Cl)c1S(=O)(=O)NC(=O)c1cc2cc(C(F)(F)F)cc(Cl)n2n1` [Example I-63], the “nematicidal activity on the basis of the percentage of gall formation” value amounted to 100%.

On to `O=C(NS(=O)(=O)c1ccc(Cl)cc1)c1cc2cc(C(F)(F)F)cc(Cl)n2n1` [Example I-20], for which the “nematicidal activity on the basis of the percentage of gall formation” value is listed as 90%.

With `COc1ccc(Cl)c(S(=O)(=O)NC(=O)c2cc3c(Cl)cc(C(F)(F)F)cn3n2)c1` [Example I-3], the “nematicidal activity on the basis of the percentage of gall formation” value is 100% and 90%.

On to `COc1ccc(Br)c(S(=O)(=O)NC(=O)c2cc3cc(C(F)(F)F)cc(Cl)n3n2)c1` [Example I-70], for which the “nematicidal activity on the basis of the percentage of gall formation” value was 100%.

For `CCCOc1ccc(Cl)c(S(=O)(=O)NC(=O)c2cc3cc(C(F)(F)F)cc(Cl)n3n2)c1` [Example I-45], the “nematicidal activity on the basis of the percentage of gall formation” value came to 100%.

As to `O=C(NS(=O)(=O)c1c(Cl)cccc1Cl)c1cc2cc(C(F)(F)F)cc(Cl)n2n1` [Example I-21], the “nematicidal activity on the basis of the percentage of gall formation” value came out at 100%.

In the case of `O=C(NS(=O)(=O)c1ccccc1OC(F)(F)F)c1cc2c(Cl)cc(C(F)(F)F)cn2n1` [Example I-5], the “nematicidal activity on the basis of the percentage of gall formation” value was 90%.

For the compound `CC(C)Nc1cccc(F)c1S(=O)(=O)NC(=O)c1cc2cc(C(F)(F)F)ccn2n1` [Example I-42], the “nematicidal activity on the basis of the percentage of gall formation” value worked out at 100%.

In the case of `O=C(NS(=O)(=O)c1cc2c(cc1Cl)OC(F)(F)O2)c1cc2c(Cl)cc(C(F)(F)F)cn2n1` [Example I-14], the “nematicidal activity on the basis of the percentage of gall formation” value stood at 90%.

Consider `CCS(=O)(=O)NC(=O)c1cc2c(Cl)cc(C(F)(F)F)cn2n1` [Example I-16], for which the “nematicidal activity on the basis of the percentage of gall formation” value came to 100%.

In the case of `CCc1ccc(C)c(S(=O)(=O)NC(=O)c2cc3cc(C(F)(F)F)ccn3n2)c1` [Example I-78], the “nematicidal activity on the basis of the percentage of gall formation” value turned out to be 100%.

In the case of `COc1ccc(Br)c(S(=O)(=O)NC(=O)c2cc3cc(Cl)cc(Cl)n3n2)c1` [Example I-69], the “nematicidal activity on the basis of the percentage of gall formation” value was determined as 100%.

With `CCSc1cccc(Cl)c1S(=O)(=O)NC(=O)c1cc2cc(C(F)(F)F)ccn2n1` [Example I-40], the “nematicidal activity on the basis of the percentage of gall formation” value was 100%.

Consider `CSc1cccc(Cl)c1S(=O)(=O)NC(=O)c1cc2cc(C(F)(F)F)cc(Cl)n2n1` [Example I-71], for which the “nematicidal activity on the basis of the percentage of gall formation” value was found to be 100%.

For `O=C(NS(=O)(=O)c1c(F)cccc1Cl)c1cc2cc(C(F)(F)F)ccn2n1` [Example I-43], the “nematicidal activity on the basis of the percentage of gall formation” value is 100%.

In the case of `O=C(NS(=O)(=O)c1cc(C(F)(F)F)ccc1Cl)c1cc2cc(C(F)(F)F)cc(Cl)n2n1` [Example I-72], the “nematicidal activity on the basis of the percentage of gall formation” value came out at 100%.

`O=C(NS(=O)(=O)c1cc(Cl)ccc1Cl)c1cc2cc(C(F)(F)F)cc(Cl)n2n1` [Example I-22]: the “nematicidal activity on the basis of the percentage of gall formation” value is 100%.

Turning to `CCS(=O)(=O)NC(=O)c1cc2cc(C(F)(F)F)cc(Cl)n2n1` [Example I-32], the “nematicidal activity on the basis of the percentage of gall formation” value amounted to 90%.

In the case of `COc1ccc(Br)c(S(=O)(=O)NC(=O)c2cc3cc(C(F)(F)F)ccn3n2)c1` [Example I-37], the “nematicidal activity on the basis of the percentage of gall formation” value is on record as 100%.

On to `CC(C)Nc1cccc(F)c1S(=O)(=O)NC(=O)c1cc2cc(Cl)cc(Cl)n2n1` [Example I-66], for which the “nematicidal activity on the basis of the percentage of gall formation” value is 90%.

With `COc1ccc(F)c(S(=O)(=O)NC(=O)c2cc3cc(C(F)(F)F)cc(Cl)n3n2)c1` [Example I-74], the “nematicidal activity on the basis of the percentage of gall formation” value is 100%.

Take `CSc1ccc(Cl)c(S(=O)(=O)NC(=O)c2cc3cc(Cl)cc(Cl)n3n2)c1` [Example I-60]: the “nematicidal activity on the basis of the percentage of gall formation” value is listed as 100%.

As to `O=C(NS(=O)(=O)c1ccccc1C(F)(F)F)c1cc2c(Cl)cc(C(F)(F)F)cn2n1` [Example I-4], the “nematicidal activity on the basis of the percentage of gall formation” value is 90%.

Turning to `O=C(NS(=O)(=O)c1ncc(C(F)(F)F)cc1Cl)c1cc2c(Cl)cc(C(F)(F)F)cn2n1` [Example I-2], the “nematicidal activity on the basis of the percentage of gall formation” value was 90%.

In the case of `O=C(NS(=O)(=O)c1cccc(Cl)c1)c1cc2cc(C(F)(F)F)cc(Cl)n2n1` [Example I-30], the “nematicidal activity on the basis of the percentage of gall formation” value is 100% and 90%.

In the case of `O=C(NS(=O)(=O)c1cccc(Cl)c1)c1cc2c(Cl)cc(C(F)(F)F)cn2n1` [Example I-12], the “nematicidal activity on the basis of the percentage of gall formation” value is 90%.

As to `CCc1ccc(Cl)c(S(=O)(=O)NC(=O)c2cc3cc(C(F)(F)F)cc(Cl)n3n2)c1` [Example I-62], the “nematicidal activity on the basis of the percentage of gall formation” value turned out to be 100%.

`O=C(NS(=O)(=O)c1ccccc1Cl)c1cc2cc(C(F)(F)F)cc(Cl)n2n1` [Example I-19]: the “nematicidal activity on the basis of the percentage of gall formation” value was found to be 100%.

`O=C(NS(=O)(=O)c1c(Cl)cccc1Cl)c1cc2ccc(C(F)(F)F)cn2n1` [Example I-52]: the “nematicidal activity on the basis of the percentage of gall formation” value is on record as 90%.

As for `O=C(NS(=O)(=O)c1c(Cl)cccc1Cl)c1cc2c(Cl)cc(C(F)(F)F)cn2n1` [Example I-18], the “nematicidal activity on the basis of the percentage of gall formation” value is listed as 100%.

For `O=C(NS(=O)(=O)c1cc(C(F)(F)F)ccc1Cl)c1cc2cc(C(F)(F)F)ccn2n1` [Example I-33], the “nematicidal activity on the basis of the percentage of gall formation” value turned out to be 100%.

Consider `O=C(NS(=O)(=O)c1c(Cl)cccc1Cl)c1cc2cc(C(F)(F)F)ccn2n1` [Example I-25], for which the “nematicidal activity on the basis of the percentage of gall formation” value stood at 100%.

Take `COc1ccc(F)c(S(=O)(=O)NC(=O)c2cc3cc(Cl)cc(Cl)n3n2)c1` [Example I-68]: the “nematicidal activity on the basis of the percentage of gall formation” value was 100%.

For the compound `CCOc1ccc(Cl)c(S(=O)(=O)NC(=O)c2cc3cc(Cl)cc(Cl)n3n2)c1` [Example I-57], the “nematicidal activity on the basis of the percentage of gall formation” value stood at 100%.

`O=C(NS(=O)(=O)c1ccc(Cl)cc1)c1cc2c(Cl)cc(C(F)(F)F)cn2n1` [Example I-9]: the “nematicidal activity on the basis of the percentage of gall formation” value is 100% and 90%.

With `CCc1ccc(Cl)c(S(=O)(=O)NC(=O)c2cc3cc(Cl)cc(Cl)n3n2)c1` [Example I-59], the “nematicidal activity on the basis of the percentage of gall formation” value is recorded as 100%.

For `O=C(NS(=O)(=O)c1c(F)cccc1Cl)c1cc2cc(Cl)cc(Cl)n2n1` [Example I-67], the “nematicidal activity on the basis of the percentage of gall formation” value is listed as 90%.

For the compound `COc1ccc(F)c(S(=O)(=O)NC(=O)c2cc3cc(C(F)(F)F)ccn3n2)c1` [Example I-38], the “nematicidal activity on the basis of the percentage of gall formation” value worked out at 100%.
